Measured values taken from ChEMBL document CHEMBL1201862, “PubChem BioAssay data set” (2004).
Activity calls are given as the source filed them.

What was measured:
[1] = system: HeLa; test: ATP-based viability loss in HeLa cells – cell-based, CellTiter-Glo luminescence, cherry-pick samples, cytotoxicity control for MITF activator project, dose response (AID 540259); type: functional; conditions: Homo sapiens
[2] = biological target: T1, Estrogen receptor (Homo sapiens, UniProt P03372);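 further: potency for inhibiting coactivator peptide recruitment to the receptor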
T1 sequence (P03372 whole entry): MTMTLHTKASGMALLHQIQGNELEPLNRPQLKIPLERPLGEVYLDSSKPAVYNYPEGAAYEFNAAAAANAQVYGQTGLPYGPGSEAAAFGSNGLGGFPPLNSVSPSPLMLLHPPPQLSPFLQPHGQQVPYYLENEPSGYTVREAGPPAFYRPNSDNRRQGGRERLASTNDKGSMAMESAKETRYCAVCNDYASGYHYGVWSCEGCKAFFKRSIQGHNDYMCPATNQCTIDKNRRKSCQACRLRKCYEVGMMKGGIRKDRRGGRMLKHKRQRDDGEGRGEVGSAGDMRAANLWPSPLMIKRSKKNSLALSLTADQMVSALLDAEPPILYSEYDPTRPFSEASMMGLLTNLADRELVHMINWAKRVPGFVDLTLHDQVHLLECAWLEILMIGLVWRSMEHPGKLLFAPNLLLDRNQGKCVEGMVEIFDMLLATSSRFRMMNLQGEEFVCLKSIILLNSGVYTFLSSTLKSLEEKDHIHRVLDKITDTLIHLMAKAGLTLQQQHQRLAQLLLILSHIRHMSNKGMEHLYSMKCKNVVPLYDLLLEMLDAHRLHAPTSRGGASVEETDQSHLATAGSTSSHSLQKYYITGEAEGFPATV

[3] = Counterscreen for activators of the function of SWI/SNF related, matrix associated, actin dependent regulator of chromatin, subfamily a, member 2 (SMARCA2, BRM): Luminescence-based cell-based high throughput dose response assay to identify non-selective compounds using the VP16 reporter assay.; type: functional
[4] = biological target: SWI/SNF-related matrix-associated actin-dependent regulator of chromatin subfamily A member 2 (Homo sapiens, UniProt P51531); test: Luminescence-based cell-based high throughput dose response assay to identify activators of the function of SWI/SNF related, matrix associated, actin dependent regulator of chromatin, subfamily a, member 2 (SMARCA2, BRM).; type: functional
SWI/SNF-related matrix-associated actin-dependent regulator of chromatin subfamily A member 2, sequence (P51531 whole entry): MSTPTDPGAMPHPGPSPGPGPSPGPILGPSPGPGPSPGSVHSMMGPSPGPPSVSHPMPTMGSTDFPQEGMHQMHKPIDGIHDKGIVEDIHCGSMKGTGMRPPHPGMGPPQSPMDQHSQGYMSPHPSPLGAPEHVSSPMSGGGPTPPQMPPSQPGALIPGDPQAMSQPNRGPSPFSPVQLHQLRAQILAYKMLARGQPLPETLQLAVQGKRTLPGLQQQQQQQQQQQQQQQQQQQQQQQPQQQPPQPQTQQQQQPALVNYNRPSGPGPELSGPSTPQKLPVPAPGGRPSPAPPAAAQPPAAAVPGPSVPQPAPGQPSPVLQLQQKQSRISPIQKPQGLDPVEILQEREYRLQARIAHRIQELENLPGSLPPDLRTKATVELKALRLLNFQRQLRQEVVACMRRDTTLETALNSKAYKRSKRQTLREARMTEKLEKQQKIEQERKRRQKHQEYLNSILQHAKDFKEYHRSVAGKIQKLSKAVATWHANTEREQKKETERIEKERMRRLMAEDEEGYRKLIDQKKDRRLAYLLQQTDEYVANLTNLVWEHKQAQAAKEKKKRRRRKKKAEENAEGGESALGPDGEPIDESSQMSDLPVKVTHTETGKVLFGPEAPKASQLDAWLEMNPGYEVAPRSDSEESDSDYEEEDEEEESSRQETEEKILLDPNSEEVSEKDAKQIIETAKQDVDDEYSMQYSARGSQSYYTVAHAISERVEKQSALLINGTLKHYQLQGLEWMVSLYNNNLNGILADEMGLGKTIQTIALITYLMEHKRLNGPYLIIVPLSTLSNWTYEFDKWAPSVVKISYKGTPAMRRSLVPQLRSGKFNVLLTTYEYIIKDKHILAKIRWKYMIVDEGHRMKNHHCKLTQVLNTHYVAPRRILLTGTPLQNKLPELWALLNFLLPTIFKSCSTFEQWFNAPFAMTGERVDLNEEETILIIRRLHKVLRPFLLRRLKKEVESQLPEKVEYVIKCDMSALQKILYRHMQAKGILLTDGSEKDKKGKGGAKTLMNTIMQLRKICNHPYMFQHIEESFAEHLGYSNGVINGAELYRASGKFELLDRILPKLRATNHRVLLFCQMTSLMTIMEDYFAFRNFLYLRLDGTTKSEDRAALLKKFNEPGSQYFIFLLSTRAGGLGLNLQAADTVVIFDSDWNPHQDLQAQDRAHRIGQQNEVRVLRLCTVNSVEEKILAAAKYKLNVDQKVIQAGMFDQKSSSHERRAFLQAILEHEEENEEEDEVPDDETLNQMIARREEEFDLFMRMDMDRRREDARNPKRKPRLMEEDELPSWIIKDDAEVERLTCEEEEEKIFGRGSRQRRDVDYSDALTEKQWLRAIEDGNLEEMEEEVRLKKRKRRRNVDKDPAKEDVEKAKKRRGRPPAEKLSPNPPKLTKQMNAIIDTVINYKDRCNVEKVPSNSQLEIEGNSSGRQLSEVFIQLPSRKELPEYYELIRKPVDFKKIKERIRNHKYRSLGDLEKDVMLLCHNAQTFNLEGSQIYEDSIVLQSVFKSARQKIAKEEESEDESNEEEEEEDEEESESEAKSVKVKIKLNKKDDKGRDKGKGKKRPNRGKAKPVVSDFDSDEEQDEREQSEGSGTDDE

[5] = biological target: T2, Protein Tat (Human immunodeficiency virus type 1 group M subtype B (isolate HXB2)(HIV-1), UniProt P04608); type: functional;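 further: tat binding to TAR RNA read out by fluorescence polarization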
T2 sequence (P04608 whole entry): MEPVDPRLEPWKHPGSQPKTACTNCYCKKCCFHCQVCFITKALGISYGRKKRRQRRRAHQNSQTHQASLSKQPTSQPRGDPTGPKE

[6] = system: HEK293; test: EBV LMP1 TES2 canonical NF-kB signalling blockers – cell-based, HEK293, luciferase, cherry-pick, dose response (AID 588343); type: functional; conditions: Homo sapiens
[7] = blockers of HIV-1 envelope-mediated cell-cell fusion – cherry-pick, dose response (AID 652057); type: functional, cell-based
[8] = P. falciparum Dd2 growth inhibitors, dose response, SYBR Green, cherry-picked samples (AID 1159567); type: functional, cell-based
[9] = viability loss in CEM21 cells – cell-based, CellTiter-Glo luminescence, cherry-picked, cytotoxicity control for viral fusion inhibitor project, dose response (AID 652042); type: functional;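 further: potency for signal decrease meaning cytotoxicity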
[10] = HIV-1 AD8 envelope cell-cell fusion blockers – cherry-pick, dose response (AID 652062); type: functional, cell-based;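 further: luciferase signal from cell-cell fusion driven by HIV-1 clade B AD8 Env; potency is for inhibitors of fusion seen as a drop in luminescence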
[11] = general mammalian cell viability loss – inhibitor set, cherry-pick, set 2, cytotoxicity control for miR-122 modulator project, dose response (AID 720697); type: functional, cell-based
[12] = toxicity to human hepatoma HepG2 cells – cell-based, cherry-picked samples, cytotoxicity control, dose response (AID 1159577); type: functional
[13] = general mammalian cell viability loss – activator set, cherry-pick, cytotoxicity control for miR-122 modulator project, dose response (AID 720690); type: functional, cell-based;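 further: HEK293T human cells scored for general mammalian cytotoxicity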
[14] = non-specific 3'UTR reporter inhibition in Clone20-Shn3RL – cell-based, Renilla luciferase, cherry-picked, counter-screen for Shn3 inhibitor project, dose response (AID 624133); type: functional
[15] = reduction of Shn3 3'UTR-driven luciferase in osteoblasts – cell-based, Clone20 osteoblasts, firefly luciferase, cherry-picked, dose response (AID 624132); type: functional;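 further: firefly luciferase luminescence from reporter carrying the Shn3 3'UTR in osteoblasts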
[16] = loss of viability in HepG2 cells – cell-based, CellTiter-Glo, cherry-picked, cytotoxicity control for Shn3 inhibitor project, dose response (AID 624134); type: functional

Nc1ccc2oc(=O)c3ccccc3c2c1
AC50 [1]: 178 µM (active)

CC(=O)NC(C)C(=O)OCC(=O)Nc1ccc(Br)cc1 (configuration not stated)
IC50 [2]: > 50 µM (not active)

O=C(NNC(S)=Nc1ccc(F)cc1F)c1ccco1
EC50 [3]: > 91.2 µM (inactive)
EC50 [4]: > 91.2 µM (inactive)

CCCCN1C(=O)NC(=O)C2(Cc3ccccc3N3CCOCC32)C1=O (configuration not stated)
IC50 [5]: > 100 µM (active)

CC(=NNC(=S)Nc1ccccc1)c1ccccn1
AC50 [6]: 0.0995 µM (active)

CC(C)[C@H](N)C(=O)N[C@H]1CCC2C3CC=C4C[C@@H](O)CC[C@]4(C)C3CC[C@@]21C (some centres not stated)
EC50 [3]: > 91.2 µM (inactive)
EC50 [4]: > 91.2 µM (inactive)

C[C@H]1CN([C@@H](C)CO)C(=O)c2c(c3ccccc3n2C)-c2ccccc2CO[C@@H]1CN(C)C(=O)Cc1ccccc1
AC50 [7]: < 0.26 µM (active)
AC50 [8]: 3.45 µM (active)
AC50 [9]: 27.4 µM (active)
AC50 [10]: < 0.26 µM (active)

CN(C[C@H]1N[C@@H](CO)[C@H]1c1ccc(-c2ccccc2)cc1)C(=O)C1CCC1
AC50 [11]: 10.2 µM (active)

CC(C)CC#Cc1ccc([C@H]2[C@@H](CO)N3CCCCN(S(=O)(=O)Cc4ccccc4)C[C@H]23)cc1
AC50 [12]: 8.87 µM (active)
AC50 [8]: 5.43 µM (active)
AC50 [13]: 15 µM (active)

O=C(C[C@H]1C[C@H]2c3cc(NS(=O)(=O)c4ccc(F)cc4)ccc3O[C@H]2[C@H](CO)O1)NCc1ccc(Cl)cc1
AC50 [12]: > 39 µM (inactive)
AC50 [8]: 6.82 µM (active)

CCCC(=O)NC(c1cccc([N+](=O)[O-])c1)c1ccc2cccnc2c1O (configuration not stated)
AC50 [14]: 3.55 µM (active)
AC50 [15]: 1.75 µM (active)
AC50 [6]: 4.48 µM (active)
AC50 [16]: 4.25 µM (active)
